Laboratory results as given in paper PMC6222847, “Application of HPCCC Combined with Polymeric Resins and HPLC for the Separation of Cyclic Lipopeptides Muscotoxins A–C and Their Antimicrobial Activity” (Molecules : A Journal of Synthetic Chemistry and Natural …, 2018).
Converted amounts (≈) assume the structure as drawn. *1 amine or outer side, *2 acyl side, *3 side chain or, on linkers, in order; H or OH if unused. Where a SMILES comes first, the peptide text is derived from it. [ ]: non-standard residue; d: D form. X1 = CCCCCC(O)CC(N[*:1])C(O)C(=O)[*:2]; d(aIle) = CC[C@H](C)[C@@H](N)C(=O)O; Dhb = C/C=C(\N)C(=O)O

Columns and labels:
[1] = system: Bacillus subtilis; experiment: Broth two-fold microdilution; type: cell-based; conditions: B. subtilis CCM1999; Mueller Hinton broth, 300–0.0732 µg/mL (control 32–0.0625), 37 °C 16 h, triplicate; MIC = least concentration showing any inhibition in the growth
Description: Furthermore, compound 1 was evaluated for its antimicrobial activity against five bacterial isolates; S. aureus (CCM3824), B. subtilis (CCM1999), S. sanguinis (CCM4047), P. aeruginosa (CCM1959), E. coli (CCM2024), and eight fungal isolates; C. friedrichii (BCC020_2879), A. fumigatus (BCC020_2845), F. oxysporum (BCC020_2866), T. harzianum (BCC020_0606), B. sorokiniana (BCC020_1571), M. cucumerina (BCC020_2872), C. globosum (BCC020_2527), and A. alternata (BCC020_0609) using broth two-fold microdilution method following the standard protocol. Briefly, for broth microdilution method, the compounds were serially diluted at varying concentrations between 300 and 0.0732 µg/mL in Mueller Hinton broth (for bacteria) and Muller Hinton broth with 2% glucose (for fungi) in 96-well plates. Culture broth (0.1 mL) was added to each well containing the compound. […] MIC95 was determined as the concentration required to inhibit or kill 95% of bacterial isolates spectroscopically at 600 nm. Minimum fungicidal concentration (MFCs) were determined after 48 h incubation by removing 10 µL of the contents from wells showing no visible growth and spreading them on to Sabouraud dextrose agar plates. The plates were then incubated for 72 h and MFCs were determined as the concentrations which killed 95–100% of the inoculum. […]

[2] = system: Aspergillus fumigatus; experiment: microbe, parasite or virus in culture; type: cell-based
Description: (§1) Furthermore, compound 1 was evaluated for its antimicrobial activity against five bacterial isolates; S. aureus (CCM3824), B. subtilis (CCM1999), S. sanguinis (CCM4047), P. aeruginosa (CCM1959), E. coli (CCM2024), and eight fungal isolates; C. friedrichii (BCC020_2879), A. fumigatus (BCC020_2845), F. oxysporum (BCC020_2866), T. harzianum (BCC020_0606), B. sorokiniana (BCC020_1571), M. cucumerina (BCC020_2872), C. globosum (BCC020_2527), and A. alternata (BCC020_0609) using broth two-fold microdilution method following the standard protocol. Briefly, for broth microdilution method, the compounds were serially diluted at varying concentrations between 300 and 0.0732 µg/mL in Mueller Hinton broth (for bacteria) and Muller Hinton broth with 2% glucose (for fungi) in 96-well plates. Culture broth (0.1 mL) was added to each well containing the compound. Plates were incubated aerobically at 37 °C for 16 h (bacteria) and 30 °C for 48 h (for fungi). Negative controls were prepared separately with respective organisms in the same culture media with methanol (the dissolving solvent). Positive controls were also prepared separately with respective organisms. Erythromycin (32–0.0625 µg/mL) was used as positive control for S. aureus and S. sanguinis, gentamycin (32–0.0625 µg/mL) was used as positive control for Bacillus subtilis, E. coli, and P. aeruginosa, whereas fluconazole (32–0.0625 µg/mL) was used as positive control for all the fungal isolates. After incubation, the well with the least concentration of the compound showing any inhibition in the growth was taken as the MIC value for the respective organisms. MIC95 was determined as the concentration required to inhibit or kill 95% of bacterial isolates spectroscopically at 600 nm. Minimum fungicidal concentration (MFCs) were determined after 48 h incubation by removing 10 µL of the contents from wells showing no visible growth and spreading them on to Sabouraud dextrose agar plates. The plates were then incubated for 72 h and MFCs were determined as the concentrations which killed 95–100% of the inoculum. All the experiments were done in triplicate.

[3] = system: Alternaria alternata; experiment: microbe, parasite or virus in culture; type: cell-based
Description: as §1

[4] = system: Trichoderma harzianum; experiment: microbe, parasite or virus in culture; type: cell-based
Description: as §1

[5] = Partition coefficient (K) in two-phase HPCCC solvent systems; type: physicochemical; conditions: 2 mg extract in 2 mL (1 mL per phase), HPLC-ESI-HRMS
Text: When working with HPCCC, the search for a proper two-phase solvent system has been informed to represent the major part of the work involved in the HPCCC separation. An appropriate two-phase solvent system for HPCCC has to provide a good partition coefficient (0.5 ≤ K ≤ 2.5) for the target compound. […] Additionally, for achieving a good resolution between two closely eluting peaks, the separation factor (α) between the two compounds (α = K2/K1, K2 > K1) should be greater than 1.5 [14, 26]. It is well described that compounds with smaller K values show a poor resolution because they elute closer to the solvent front. On the contrary, those compounds with larger K value are better separated but elute as wider peaks and at later elution times. In the present study, the capacity of different two-phase solvent systems (Table 1) to provide suitable K values of the compounds 1–3 was investigated. The K value is frequently estimated by using HPLC with UV detection, which is calculated by dividing the peak area of the target compound in the upper phase by that of the peak area of the same target compound in the lower phase. However, given that UV chromatogram provided insufficient peak areas for minor muscotoxins, the MS detector was thus used to estimate the K values. By using this approach, the peak area of the molecular ions corresponding to the target compounds were selectively monitored from the base peak chromatogram. As presented in the Table 1, the solvent system 10 (n-hexane, ethyl acetate, ethanol, and water in a ratio of 1:5:1:5) gave suitable K values and a proper separation factor (α) for compounds 2 and 3, as well as a short settling time. […] The improvement of the K value of compound 1 could be achieved by finding out a new solvent system or by modifying the composition of the already selected solvent system. In the present study, the system 10 was acidified by adding acetic acid leading to the system 11 (n-hexane, ethyl acetate, ethanol, water, and acetic acid, 1:5:1:5:1). […] Although the partition coefficients of the target compounds in systems 10 and 11 are strongly correlated, the system 10 ensured a sufficient selectivity (α = 1.5) between the compounds 2 and 3. […] In HPCCC, it is very well established that when the retention of stationary phase is increased, a good chromatographic resolution is achieved. A reduced flow rate of the mobile phase and a high rotational speed of the column favor the retention of the stationary phase inside the HPCCC column. In this study, the flow rate of the mobile phase in the first step and second step of the HPCCC operations was 1 mL/min and the rotational speed was set at 1200 rpm. Moreover, it was observed that a good resolution between the compounds 2 and 3 was achieved when injecting 100 mg of enriched extract.
Different two-phase solvent systems were prepared using n-hexane, ethyl acetate, ethanol, water, and acetic acid in different proportions (Table 1). The prepared solvent systems were investigated for their capacity to provide suitable partition coefficients (K) of the target compounds. In addition, given that the settling time as well as the density difference between the upper and lower phases of each two-phase solvent system are parameters associated with the retention of stationary phase in the column, they were thus estimated and used as selection criteria. For estimating the partition coefficient (Table 1) of the target compound, 2 mg of extract containing the target compounds was dissolved in 2 mL of a given two-phase solvent system (1 mL per each phase). The test tube containing the sample solution was shaken vigorously, and then left, to equilibrate the two phases, for 20 min. Equal volumes of each phase were then analyzed by HPLC-ESI-HRMS to obtain the partition coefficients (K), which were calculated by dividing the peak area of the target compound in the upper phase by the peak area of compound in the lower phase.

## C/C=C1\NC(=O)[C@H](CO)NC(=O)[C@@H]([C@@H](C)CC)NC(=O)[C@H](Cc2ccccc2)NC(=O)[C@@H]2CCCN2C(=O)CNC(=O)[C@@H](CCC(N)=O)NC(=O)C(O)C(CC(O)CCCCC)NC(=O)[C@@H]2CCCN2C(=O)[C@@H]([C@@H](C)CC)NC(=O)[C@H](CO)NC1=O (stereo partly drawn) [compound 2, muscotoxin A] (cyclo([Dhb]S[d(aIle)]P[X1][dQ]GPF[d(aIle)]S))
[1]
  MIC: 37.5 µg/mL (≈ 31 µM)
[2]; A. fumigatus BCC020_2845, Muller Hinton broth with 2% glucose, 300–0.0732 µg/mL (control 32–0.0625), 30 °C 48 h, triplicate, least concentration showing any inhibition
  MIC: 2.34 µg/mL (≈ 1.93 µM)
[2]; A. fumigatus, 10 µL from wells without visible growth after 48 h spread on Sabouraud dextrose agar, 72 h, kills 95–100% of the inoculum
  MFC: 37.5 µg/mL (≈ 31 µM)
[3]; A. alternata BCC020_0609, Muller Hinton broth with 2% glucose, 300–0.0732 µg/mL (control 32–0.0625), 30 °C 48 h, triplicate, least concentration showing any inhibition
  MIC: 0.58 µg/mL (≈ 0.479 µM)
[3]; A. alternata, 10 µL from wells without visible growth after 48 h spread on Sabouraud dextrose agar, 72 h, kills 95–100% of the inoculum
  MFC: 75 µg/mL (≈ 61.9 µM)
[4]; T. harzianum BCC020_0606, Muller Hinton broth with 2% glucose, 300–0.0732 µg/mL (control 32–0.0625), 30 °C 48 h, triplicate, least concentration showing any inhibition
  MIC: 37.5 µg/mL (≈ 31 µM)
[4]; T. harzianum, 10 µL from wells without visible growth after 48 h spread on Sabouraud dextrose agar, 72 h, kills 95–100% of the inoculum
  MFC: 300 µg/mL (≈ 248 µM)
[5]; solvent system 1, n-Hex–EtOH–H2O 10:5:5, shake test tube, equilibrated 20 min, K = peak area upper phase/lower phase
  Partition Coefficient (K) of Muscotoxins: 0.03
[5]; solvent system 2, n-Hex–EtOAc–EtOH–H2O 9:1:5:5, shaken, 20 min, K = peak area UP/LP
  Partition Coefficient (K) of Muscotoxins: 0.03
[5]; solvent system 3, n-Hex–EtOAc–EtOH–H2O 8:2:5:5, shaken, 20 min, K = peak area UP/LP
  Partition Coefficient (K) of Muscotoxins: 0.01
[5]; solvent system 4, n-Hex–EtOAc–EtOH–H2O 7:3:5:5, shaken, 20 min, K = peak area UP/LP
  Partition Coefficient (K) of Muscotoxins: 0.06
[5]; solvent system 5, n-Hex–EtOAc–EtOH–H2O 6:4:5:5, shaken, 20 min, K = peak area UP/LP
  Partition Coefficient (K) of Muscotoxins: 0.09
[5]; solvent system 6, n-Hex–EtOAc–EtOH–H2O 5:5:5:5, shaken, 20 min, K = peak area UP/LP
  Partition Coefficient (K) of Muscotoxins: 0.01
[5]; solvent system 7, n-Hex–EtOAc–EtOH–H2O 4:5:4:5, shaken, 20 min, K = peak area UP/LP
  Partition Coefficient (K) of Muscotoxins: 0.14
[5]; solvent system 8, n-Hex–EtOAc–EtOH–H2O 3:5:3:5, shaken, 20 min, K = peak area UP/LP
  Partition Coefficient (K) of Muscotoxins: 0.32
[5]; solvent system 9, n-Hex–EtOAc–EtOH–H2O 2:5:2:5, shaken, 20 min, K = peak area UP/LP
  Partition Coefficient (K) of Muscotoxins: 0.97
[5]; solvent system 10, n-Hex–EtOAc–EtOH–H2O 1:5:1:5, shaken, 20 min, K = peak area UP/LP
  Partition Coefficient (K) of Muscotoxins: 0.94
[5]; solvent system 11, n-Hex–EtOAc–EtOH–H2O–AcOH 1:5:1:5:1, shaken, 20 min, K = peak area UP/LP
  Partition Coefficient (K) of Muscotoxins: 1.97
